According to PubChem BioAssay AID1963865 (Molecular Pharmacology Branch, DTP, NCI, 2024):

Test system: KRAS PDC multicell spheroid viability
Test: Anticancer human tumor 825966-067-R-J1-PDC patient-derived colon carcinoma cell line growth inhibition [KRAS2]
Settings: for IC50: curve of first compound; for viability, T/C: stronger effect = lower value
In short: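 KRAS-mutant tumor cells were grown as spheroids with HUVEC endothelial cells and human MSCs as stroma. Targeted agents were tested alone and with KRAS pathway inhibitors. Doses started at or near clinical Cmax, or 10 microM, descending half-log.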

[1] = second compound 0.1 µM, first compound 0.0316 µM
[2] = second compound 0.1 µM, first compound 0.1 µM
[3] = second compound 0.1 µM, first compound 0.316 µM
[4] = second compound 0.1 µM, first compound 1 µM
[5] = second compound 0.1 µM, first compound 3.16 µM
[6] = second compound 0.1 µM, first compound 10 µM
[7] = second compound 0.316 µM, first compound 0.0316 µM
[8] = second compound 0.316 µM, first compound 0.1 µM
[9] = second compound 0.316 µM, first compound 0.316 µM
[10] = second compound 0.316 µM, first compound 1 µM
[11] = second compound 0.316 µM, first compound 3.16 µM
[12] = second compound 0.316 µM, first compound 10 µM
[13] = second compound 1 µM, first compound 0.0316 µM
[14] = second compound 1 µM, first compound 0.1 µM
[15] = second compound 1 µM, first compound 0.316 µM
[16] = second compound 1 µM, first compound 1 µM
[17] = second compound 1 µM, first compound 3.16 µM
[18] = second compound 1 µM, first compound 10 µM
[19] = second compound 3.16 µM, first compound 0.0316 µM
[20] = second compound 3.16 µM, first compound 0.1 µM
[21] = second compound 3.16 µM, first compound 0.316 µM
[22] = second compound 3.16 µM, first compound 1 µM
[23] = second compound 3.16 µM, first compound 3.16 µM
[24] = second compound 3.16 µM, first compound 10 µM
[25] = second compound 10 µM, first compound 0.0316 µM
[26] = second compound 10 µM, first compound 0.1 µM
[27] = second compound 10 µM, first compound 0.316 µM
[28] = second compound 10 µM, first compound 1 µM
[29] = second compound 10 µM, first compound 3.16 µM
[30] = second compound 10 µM, first compound 10 µM
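Further: spheroids exposed to compounds for 7 days.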
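Wherever viability, T/C is given: 100% = DMSO vehicle control viability.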

**Q.** Which results are given for `Cn1nccc1Nc1nccc(-c2cc3c(s2)C(C)(C)N(CCN2CCOCC2)C3=O)n1` + C=CC(=O)N1CCN(c2nc(=O)n(-c3c(C)ccnc3C(C)C)c3nc(-c4c(O)cccc4F)c(F)cc23)C(C)C1?
**A.** IC50 (second compound 0.1 µM): > 10 µM; IC50 (second compound 0.316 µM): > 10 µM; IC50 (second compound 1 µM): 7.09 µM; IC50 (second compound 3.16 µM): > 10 µM; IC50 (second compound 10 µM): > 10 µM; viability, T/C [1]: 89.9%; viability, T/C [2]: 101%; viability, T/C [3]: 119%; viability, T/C [4]: 100%; viability, T/C [5]: 81.3%; viability, T/C [6]: 85.8%; viability, T/C [7]: 84.2%; viability, T/C [8]: 91.3%; viability, T/C [9]: 122%; viability, T/C [10]: 107%; viability, T/C [11]: 83.2%; viability, T/C [12]: 72.2%; viability, T/C [13]: 86.9%; viability, T/C [14]: 83.6%; viability, T/C [15]: 103%; viability, T/C [16]: 98.7%; viability, T/C [17]: 78.4%; viability, T/C [18]: 38%; viability, T/C [19]: 95.3%; viability, T/C [20]: 95.7%; viability, T/C [21]: 111%; viability, T/C [22]: 82.8%; viability, T/C [23]: 77.7%; viability, T/C [24]: 67%; viability, T/C [25]: 73.4%; viability, T/C [26]: 86.5%; viability, T/C [27]: 92.1%; viability, T/C [28]: 82.5%; viability, T/C [29]: 77.8%; viability, T/C [30]: 73%

**Q.** For `COc1cc(Nc2ncc3c(n2)-c2ccc(Cl)cc2C(c2c(F)cccc2OC)=NC3)ccc1C(=O)O` + CNCc1ccccc1-c1csc(C(C)Nc2nc(C)nc3cc(OC)c(OC)cc23)c1, which IC50 (second compound 0.1 µM) is on record?
**A.** > 10 µM

**Q.** What about the IC50 (second compound 0.316 µM) of the same molecule?
**A.** > 10 µM

**Q.** What about the IC50 (second compound 1 µM) of the same molecule?
**A.** > 10 µM

**Q.** What about the IC50 (second compound 3.16 µM) of the same molecule?
**A.** < 0.0316 µM

**Q.** And the IC50 (second compound 10 µM)?
**A.** < 0.0316 µM

**Q.** What about the viability, T/C [1] of the same molecule?
**A.** 95.3%

**Q.** And the viability, T/C [2]?
**A.** 178%

**Q.** What about the viability, T/C [3] of the same molecule?
**A.** 165%

**Q.** And the viability, T/C [4]?
**A.** 150%

**Q.** And the viability, T/C [5]?
**A.** 167%

**Q.** What about the viability, T/C [6] of the same molecule?
**A.** 155%

**Q.** What about the viability, T/C [7] of the same molecule?
**A.** 132%

**Q.** What about the viability, T/C [8] of the same molecule?
**A.** 145%

**Q.** And the viability, T/C [9]?
**A.** 124%

**Q.** And the viability, T/C [10]?
**A.** 140%

**Q.** What about the viability, T/C [11] of the same molecule?
**A.** 147%

**Q.** And the viability, T/C [12]?
**A.** 134%

**Q.** What about the viability, T/C [13] of the same molecule?
**A.** 108%

**Q.** What about the viability, T/C [14] of the same molecule?
**A.** 123%

**Q.** And the viability, T/C [15]?
**A.** 159%

**Q.** What about the viability, T/C [16] of the same molecule?
**A.** 156%

**Q.** And the viability, T/C [17]?
**A.** 142%

**Q.** And the viability, T/C [18]?
**A.** 120%

**Q.** What about the viability, T/C [19] of the same molecule?
**A.** 0.27%

**Q.** What about the viability, T/C [20] of the same molecule?
**A.** 2.41%

**Q.** And the viability, T/C [21]?
**A.** 15.8%

**Q.** And the viability, T/C [22]?
**A.** 0.43%

**Q.** What about the viability, T/C [23] of the same molecule?
**A.** 0.37%

**Q.** And the viability, T/C [24]?
**A.** 4.13%

**Q.** And the viability, T/C [25]?
**A.** 0.16%

**Q.** And the viability, T/C [26]?
**A.** 0.15%

**Q.** And the viability, T/C [27]?
**A.** 0.17%

**Q.** And the viability, T/C [28]?
**A.** 0.16%

**Q.** And the viability, T/C [29]?
**A.** 0.17%

**Q.** And the viability, T/C [30]?
**A.** 0.22%
